Measured values taken from patent US8232274B2, “Pyridazinone derivatives useful as glucan synthase inhibitors” (Albany Molecular Research, Inc., priority 2007, dated 2012).
pIC50: −log10 of the molar value.

Columns and labels:
glucan synthase [1] = biological target: T1, glucan synthase (Saccharomyces cerevisiae, UniProt P38631); assay: β(1,3) glucan synthase assay, S. cerevisiae PM503 permeabilized cells or membrane preparation (IC50); format: biochemical
T1 construct: glucan synthase sources (2 μL permeabilized PM503 cells, or 3 μL membrane preparations from either PM503, BWP17, or ND158); endogenous in cells; host or cells: S. cerevisiae strain PM503, permeabilized cells or 100,000 g membrane fraction
Protocol: (§1) β(1,3) Glucan Synthase Assay:
1. Preparation of Permeabilized Saccharomyces cerevisiae Cells.
Permeabilization of yeast cells was performed according to Crotti et al. (Analytical Biochemistry, 292, 8-16, 2001) with some modifications. A 10 ml-starter culture of the S. cerevisiae strain in YPD medium (1% yeast extract, 2% bacto-peptone, 2% dextrose) with OD600=3-4 was used to inoculate 1 liter of YPD. The culture was grown at 30° C. until […]. Cells were collected by centrifugation (5,300 g for 15 min at 4° C.) and resuspended in buffer (40 mM EDTA, 100 mM β-mercaptoethanol) at 1 g of cell pellet/3.5 ml buffer. The cell suspension was shaken for 30 min at 30° C., followed by centrifugation at 12,000 g for 10 min at 4° C. The cell pellet was washed with 5 ml 0.8 M sorbitol and resuspended in 6.8 ml of 2.9 mM citric acid, 11.3 mM dibasic sodium phosphate, 1 mM EDTA, 0.8 M sorbitol, with constant shaking at 30)C for 30 min. After centrifugation at 12,000 g for […] at 4° C., the pellet was resuspended in 31.3 ml 50 mM Tris-HCl, pH 7.0, and incubated on ice for 5 min. The mixture was then centrifuged at 12,000 g for 10 min at 4 AC, and the pellet was resuspended in 1 ml of 50 mM Tris-HCl and 33% glycerol, pH 7.5. The permeabilized cell preparation was stored at […] in aliquots.
(§2) 2. Preparation of Membrane Fraction of Yeast Cells
(§3) The protocol was modified from Douglas et al. (Journal of Bacteriology, 176, 5686-5696, 1994). For the preparation of S. cerevisiae and C. albicans membrane fractions, 1 liter of YPD supplemented with 0.02 mg/mL adenine and 0.08 mg/mL uracil was inoculated with 10 mL starter culture of PM503 (OD600=4) or the C. albicans strain BWP17 (OD600=12) in the same medium and grown at 30° C. until OD600 reached about 1. A. fumigatus (stain ND158) membranes were prepared by first preparing a spore suspension from agar slants by adding 6 mL of sterile saline, 0.1% Tween-20 solution to each slant, and resuspending by pipetting and scraping. The spore suspensions were used to inoculate two 200 mL flasks containing Sabouraud dextrose broth media. Cultures were incubated at 37° C., 250 rpm for ˜8 hrs. All cells, S. cerevisiae, C. albicans or A. fumigatus were harvested by centrifugation at 5,300 g at 4° C. for 40 minutes. After washing with 100 mL of breakage buffer (0.1 M KPi, pH 7.0, 1 mM EDTA, 1 mM DTT), the cell pellet was resuspended in 50 ml ice-cold breakage buffer. The mixture was transferred to a bead-beater chamber packed in ice (BioSpec Products, Bartlesville, Okla.). To each 50 mL sample was added 50 g of acid-washed glass beads ([…], Sigma). Cells were disrupted using 12×20 second pulses with 2 min-cooling intervals. Cell debris was removed by centrifugation at 3,000 g for 20 minutes at 4° C., and the supernatant was collected and centrifuged at 100,000 g for 1 hour at 4° C. to pellet the membrane fraction. The pellet was resuspended in 5 mL of ice-cold breakage buffer containing 25% glycerol, homogenized with a Dounce tissue homogenizer and stored at −80° C. in small aliquots.
(§4) 3. Glucan Synthase Assay and Compound Screening
The assay was performed according to Mo et at (Journal of Biological Chemistry, 269, 31267-31274, 1994) and Taft et al. (The Journal of Antibiotics, 47, 1001-1009, 1994), in a 96-well Optiplate (PerkinElmer). To each well was added 3 μL 10× compound stock (in 100% DMSO), or 3 μL of 30 μg/mL caspofungin in 100% DMSO (as positive control), or 3 μL 100% DMSO (as negative control), followed by the addition of appropriate amount of glucan synthase sources (2 μL permeabilized PM503 cells, or 3 μL membrane preparations from either PM503, BWP17, or ND158). The reaction was initiated by adding 25 μL reaction buffer (0.6 mM UDP-Glucose 0.6 nCi [U-^14C]DUP-Glucose (327 mCi/mmol, Amersham Bioscience), 20 μM GTP-γ-S, 25 mM NaF, 7.5 mg/mL BSA, 8% glycerol in 75 mM Tris-HCl, pH 7.5). […]

glucan synthase [2] = biological target: T2, glucan synthase (Candida albicans, UniProt O13428); assay: β(1,3) glucan synthase assay, C. albicans BWP17 membrane preparation (IC50); format: biochemical; conditions: in vitro fungal enzyme activity assay, read-out: IC50 (μg/mL) Candida albicans (converted)
T2 construct: glucan synthase sources (2 μL permeabilized PM503 cells, or 3 μL membrane preparations from either PM503, BWP17, or ND158); endogenous in cells; host or cells: C. albicans strain BWP17, 100,000 g membrane fraction
Protocol: as §1, §2, §3, §4
The assay was performed according to Mo et at (Journal of Biological Chemistry, 269, 31267-31274, 1994) and Taft et al. (The Journal of Antibiotics, 47, 1001-1009, 1994), in a 96-well Optiplate (PerkinElmer). To each well was added 3 μL 10× compound stock (in 100% DMSO), or 3 μL of 30 μg/mL caspofungin in 100% DMSO (as positive control), or 3 μL 100% DMSO (as negative control), followed by the addition of appropriate amount of glucan synthase sources (2 μL permeabilized PM503 cells, or 3 μL membrane preparations from either PM503, BWP17, or ND158). The reaction was initiated by adding 25 μL reaction buffer (0.6 mM UDP-Glucose 0.6 nCi [U-^14C]DUP-Glucose (327 mCi/mmol, Amersham Bioscience), 20 μM GTP-γ-S, 25 mM NaF, 7.5 mg/mL BSA, 8% glycerol in 75 mM Tris-HCl, pH 7.5). The plate was incubated on a shaker for 1.5 hour at room temperature before being quenched with 250 μL 1% TCA (Trichloroacetic Acid). The quenched reaction was mixed by pipetting, and immediately transferred to a 96-well filter plate (Glass fiber B on 0.65 μm hydrophilic durapore membrane, Millipore) pre-wetted with wash buffer (5% TCA, 60 mM NaPPi). The glucan product was retained on the filter membrane by applying vacuum to the plate using a MultiScreen Resist Vacuum Manifold (Millipore). The filter plate was further washed 4 times with 200 μL wash buffer. The plate was dried at 50° C. for 30 minutes. 100 μL of Microscint-0 (PerkinElmer) was added to each well, and plate was counted in a TopCount NXT plate reader (PerkinElmer).
Dose-response curves were plotted from inhibition data generated. IC50 was determined by fitting the CPM versus the Concentration of the test compound plot with the following equation (4-parameter logistic model, ID Business Solutions XLfit 4.2).

T1 sequence (P06780 1-206): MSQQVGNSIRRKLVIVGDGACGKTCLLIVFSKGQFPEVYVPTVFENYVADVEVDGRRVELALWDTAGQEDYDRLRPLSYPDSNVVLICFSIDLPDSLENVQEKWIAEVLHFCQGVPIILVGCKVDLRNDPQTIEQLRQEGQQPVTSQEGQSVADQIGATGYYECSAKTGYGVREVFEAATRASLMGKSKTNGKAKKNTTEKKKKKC
T1 sequence (P38631 whole entry): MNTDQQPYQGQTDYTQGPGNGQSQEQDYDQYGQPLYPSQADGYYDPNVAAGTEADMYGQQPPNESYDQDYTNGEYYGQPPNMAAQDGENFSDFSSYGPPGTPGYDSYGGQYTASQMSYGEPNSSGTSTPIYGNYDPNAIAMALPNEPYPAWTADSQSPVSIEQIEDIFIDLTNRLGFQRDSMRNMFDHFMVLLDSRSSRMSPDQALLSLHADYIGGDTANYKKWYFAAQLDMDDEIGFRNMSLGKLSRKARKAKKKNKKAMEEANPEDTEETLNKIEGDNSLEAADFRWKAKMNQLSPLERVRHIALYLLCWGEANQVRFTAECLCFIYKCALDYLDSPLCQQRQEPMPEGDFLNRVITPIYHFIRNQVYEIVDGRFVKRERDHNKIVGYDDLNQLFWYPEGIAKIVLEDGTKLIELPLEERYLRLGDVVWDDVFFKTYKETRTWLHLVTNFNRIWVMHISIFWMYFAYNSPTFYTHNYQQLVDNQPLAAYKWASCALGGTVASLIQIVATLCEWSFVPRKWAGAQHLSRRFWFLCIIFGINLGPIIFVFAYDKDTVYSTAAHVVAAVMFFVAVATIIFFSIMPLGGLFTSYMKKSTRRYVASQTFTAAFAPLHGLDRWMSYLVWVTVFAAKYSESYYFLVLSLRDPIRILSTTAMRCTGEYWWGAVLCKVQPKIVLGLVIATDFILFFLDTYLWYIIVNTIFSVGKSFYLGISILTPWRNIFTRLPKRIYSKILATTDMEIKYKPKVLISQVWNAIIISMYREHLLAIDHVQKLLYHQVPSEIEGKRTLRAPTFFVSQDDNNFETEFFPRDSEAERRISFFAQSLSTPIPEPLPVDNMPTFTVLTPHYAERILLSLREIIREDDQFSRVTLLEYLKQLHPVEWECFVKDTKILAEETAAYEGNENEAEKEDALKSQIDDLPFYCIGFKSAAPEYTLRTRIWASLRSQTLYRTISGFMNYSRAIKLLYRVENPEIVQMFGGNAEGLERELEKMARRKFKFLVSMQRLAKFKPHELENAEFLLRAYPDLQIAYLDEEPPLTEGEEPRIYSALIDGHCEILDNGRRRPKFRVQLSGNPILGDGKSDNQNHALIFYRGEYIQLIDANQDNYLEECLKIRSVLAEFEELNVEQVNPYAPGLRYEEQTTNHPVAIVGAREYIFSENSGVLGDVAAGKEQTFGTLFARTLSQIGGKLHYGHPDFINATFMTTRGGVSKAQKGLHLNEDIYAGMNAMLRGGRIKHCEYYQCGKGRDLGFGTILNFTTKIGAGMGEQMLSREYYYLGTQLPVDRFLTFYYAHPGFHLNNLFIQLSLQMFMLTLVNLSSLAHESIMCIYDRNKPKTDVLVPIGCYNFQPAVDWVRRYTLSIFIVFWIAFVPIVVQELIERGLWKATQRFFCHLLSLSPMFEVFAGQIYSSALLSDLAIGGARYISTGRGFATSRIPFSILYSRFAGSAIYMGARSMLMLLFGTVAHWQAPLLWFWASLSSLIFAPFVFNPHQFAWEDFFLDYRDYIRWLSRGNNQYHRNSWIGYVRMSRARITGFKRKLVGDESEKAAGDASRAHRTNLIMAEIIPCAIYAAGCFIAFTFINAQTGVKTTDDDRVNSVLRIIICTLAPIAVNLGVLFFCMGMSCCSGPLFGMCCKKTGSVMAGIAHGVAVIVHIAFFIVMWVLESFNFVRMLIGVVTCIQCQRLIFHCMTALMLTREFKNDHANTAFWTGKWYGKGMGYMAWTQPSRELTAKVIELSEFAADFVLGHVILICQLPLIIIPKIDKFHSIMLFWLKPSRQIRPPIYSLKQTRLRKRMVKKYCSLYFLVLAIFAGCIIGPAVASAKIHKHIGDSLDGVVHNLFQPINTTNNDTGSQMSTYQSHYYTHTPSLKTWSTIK
T2 sequence (O13428 1-1897): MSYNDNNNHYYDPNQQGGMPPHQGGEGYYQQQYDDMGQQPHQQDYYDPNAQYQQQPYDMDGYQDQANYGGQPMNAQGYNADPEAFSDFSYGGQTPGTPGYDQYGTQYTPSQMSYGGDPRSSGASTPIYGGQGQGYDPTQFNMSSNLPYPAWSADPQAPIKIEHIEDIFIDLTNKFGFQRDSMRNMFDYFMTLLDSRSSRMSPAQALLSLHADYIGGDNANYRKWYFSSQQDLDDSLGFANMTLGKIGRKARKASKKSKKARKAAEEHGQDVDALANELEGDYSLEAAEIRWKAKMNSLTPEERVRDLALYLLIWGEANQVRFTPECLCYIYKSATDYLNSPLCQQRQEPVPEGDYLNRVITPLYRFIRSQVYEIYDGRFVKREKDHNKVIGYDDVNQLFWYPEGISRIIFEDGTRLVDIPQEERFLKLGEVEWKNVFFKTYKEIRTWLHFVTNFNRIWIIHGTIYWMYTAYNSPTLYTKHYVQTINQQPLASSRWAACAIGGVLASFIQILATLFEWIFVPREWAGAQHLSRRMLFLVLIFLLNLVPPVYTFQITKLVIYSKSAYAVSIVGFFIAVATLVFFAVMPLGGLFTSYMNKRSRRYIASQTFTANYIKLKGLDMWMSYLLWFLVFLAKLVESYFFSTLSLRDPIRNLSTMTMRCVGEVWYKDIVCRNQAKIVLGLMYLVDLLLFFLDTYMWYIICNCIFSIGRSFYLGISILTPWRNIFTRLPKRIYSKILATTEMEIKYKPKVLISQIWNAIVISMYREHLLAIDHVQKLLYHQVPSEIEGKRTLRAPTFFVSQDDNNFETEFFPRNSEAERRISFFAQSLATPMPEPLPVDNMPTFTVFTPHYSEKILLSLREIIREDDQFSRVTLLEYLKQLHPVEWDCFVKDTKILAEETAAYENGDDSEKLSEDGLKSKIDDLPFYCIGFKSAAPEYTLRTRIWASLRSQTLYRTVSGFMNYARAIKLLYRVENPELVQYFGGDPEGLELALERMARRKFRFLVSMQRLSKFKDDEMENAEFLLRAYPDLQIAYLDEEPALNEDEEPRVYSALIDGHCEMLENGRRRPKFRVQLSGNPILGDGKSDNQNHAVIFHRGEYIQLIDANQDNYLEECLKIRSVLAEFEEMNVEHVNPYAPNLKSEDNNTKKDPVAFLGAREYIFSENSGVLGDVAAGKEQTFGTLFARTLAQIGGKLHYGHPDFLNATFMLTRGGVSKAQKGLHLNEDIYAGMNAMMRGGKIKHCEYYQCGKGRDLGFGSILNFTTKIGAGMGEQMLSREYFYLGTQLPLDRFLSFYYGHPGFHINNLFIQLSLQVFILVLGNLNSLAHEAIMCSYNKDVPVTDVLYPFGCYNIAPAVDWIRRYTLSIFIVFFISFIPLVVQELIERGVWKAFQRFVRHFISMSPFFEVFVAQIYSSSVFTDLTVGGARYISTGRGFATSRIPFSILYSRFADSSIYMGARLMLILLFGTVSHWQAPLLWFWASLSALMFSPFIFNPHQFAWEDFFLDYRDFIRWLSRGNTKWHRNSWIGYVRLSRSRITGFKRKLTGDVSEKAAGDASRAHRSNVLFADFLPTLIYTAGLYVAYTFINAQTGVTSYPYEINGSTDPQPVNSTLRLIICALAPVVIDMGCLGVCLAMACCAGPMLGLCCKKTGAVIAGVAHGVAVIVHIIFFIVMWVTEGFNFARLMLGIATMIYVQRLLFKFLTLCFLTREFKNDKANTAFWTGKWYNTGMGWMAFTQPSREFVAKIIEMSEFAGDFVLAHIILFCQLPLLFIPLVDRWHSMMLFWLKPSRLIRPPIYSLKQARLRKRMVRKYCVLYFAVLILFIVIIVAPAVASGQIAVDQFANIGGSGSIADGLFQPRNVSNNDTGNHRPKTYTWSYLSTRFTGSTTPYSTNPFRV
T2 sequence (O42825 1-195 partner limits assumed): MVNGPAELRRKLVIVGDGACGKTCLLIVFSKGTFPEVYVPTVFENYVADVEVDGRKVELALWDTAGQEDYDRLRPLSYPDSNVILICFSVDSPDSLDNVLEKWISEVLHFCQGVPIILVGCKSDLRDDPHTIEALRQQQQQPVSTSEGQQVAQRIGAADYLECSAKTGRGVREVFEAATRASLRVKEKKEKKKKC

| Compound | pIC50 (glucan synthase [1]) | IC50 (glucan synthase [2]) [nM] |
| --- | --- | --- |
| O=c1c(OC2CCCC2)c(N2CCN(S(=O)(=O)NCc3ccccc3)CC2)cnn1-c1cccc(Cl)c1 [808Z] | 7.26 | 91.9 |
| COc1ccc(CS(=O)(=O)N2CCN(c3cnn(-c4cc(F)cc(F)c4)c(=O)c3OCC3(C)CC3)CC2)cc1N [1864Z] | 6.98 | 86.9 |
| CCOCCOc1c(N2CCN(Cc3c(Cl)cccc3Cl)CC2)cnn(-c2cc(Cl)cc(Cl)c2)c1=O [214Z] | 5.88 | 489 |
| COCCNc1cccc(CS(=O)(=O)N2CCN(c3cnn(-c4cccc(Cl)c4)c(=O)c3OCC3(C)CC3)CC2)c1 [1951Z] | 7.00 | 83 |
| CC1(COc2c(N3CCN(S(=O)(=O)Cc4ccc(N)cc4)CC3)cnn(-c3cc(F)cc(F)c3)c2=O)CC1 [767Z] | 7.04 | 238 |
| Cc1ccc(CNS(=O)(=O)N2CCN(c3cnn(-c4cc(F)cc(F)c4)c(=O)c3OC3CCC(F)C3)CC2)cc1N (centres unmarked) [1715Z] | 6.77 | 523 |
| N[C@@H](Cc1ccc(Cl)cc1)C(=O)N1CCN(c2cnn(-c3ccccc3)c(=O)c2Sc2ccc(F)cc2)CC1 [1Z] | – | 17700 |
| CC1(COc2c(N3CCN(S(=O)(=O)NCc4ccc(F)cc4)CC3)cnn(-c3cc(F)cc(F)c3)c2=O)CC1 [1734Z] | 6.97 | 231 |
| O=c1c(OC2CCCC2)c(N2CCN(S(=O)(=O)NCc3ccccc3)CC2)cnn1-c1cc(F)cc(F)c1 [1629Z] | 7.44 | 91.6 |
| O=c1c(OCC2CC2(F)F)c(N2CCN(S(=O)(=O)Cc3ccccc3)CC2)cnn1-c1cc(F)cc(F)c1 (centres unmarked) [1529Z-180] | 8.74 | 5.43 |
| O=c1c(N2CCOCC2)c(N2CCN(S(=O)(=O)Cc3ccccc3)CC2)cnn1Cc1c(F)cccc1Cl [30Z] | 6.15 | 16000 |
| CCOCCOc1c(N2CCN(C(=O)CC)CC2)cnn(-c2cccc(C)c2)c1=O [227Z] | 3.44 | 367000 |
| CC(C)S(=O)(=O)N1CCN(c2cnn(-c3cc(F)cc(F)c3)c(=O)c2Sc2ccccc2)CC1 [19Z] | 6.80 | 3360 |
| CC1(COc2c(N3CCN(S(=O)(=O)Cc4cccc(N)c4)CC3)cnn(-c3cc(F)cc(F)c3)c2=O)CC1 [1529Z-40] | 7.26 | 55 |
| CCCCCCCCCC(=O)N1CCN(c2cnn(-c3ccccc3)c(=O)c2OCCCCCCC)CC1 [232Z] | 5.42 | 15600 |
| CC(C)S(=O)(=O)N1CCN(c2cnn(-c3cccc(F)c3)c(=O)c2OC2CCCCC2)CC1 [402Z] | 6.82 | 794 |
| Cc1ccc(CNS(=O)(=O)N2CCN(c3cnn(-c4cccc(Cl)c4)c(=O)c3OCC3(C)CC3)CC2)cc1N [1683Z] | 6.86 | 122 |

| Compound | pIC50 (glucan synthase [1]) | IC50 (glucan synthase [2]) [nM] |
| --- | --- | --- |
| CC1(COc2c(N3CCN(S(=O)(=O)Cc4ccc(C#N)cc4)CC3)cnn(-c3cccc(Cl)c3)c2=O)CC1 [1529Z-56] | 6.51 | 108 |
| O=c1c(OC2Cc3ccccc3CC2F)c(N2CCN(S(=O)(=O)CF)CC2)cnn1-c1cc(F)cc(F)c1 (centres unmarked) [1267Z] | 6.70 | 633 |
| CC1(COc2c(N3CCN(S(=O)(=O)Cc4ccc(Br)cc4)CC3)cnn(-c3cc(F)cc(F)c3)c2=O)CC1 [1529Z-33] | 7.78 | 32.8 |
| O=C(NCc1ccccc1)N1CCN(c2cnn(-c3cccc(Cl)c3)c(=O)c2OC2CCCC2)CC1 [204Z] | 3.69 | 68900 |
| CC(Oc1c(N2CCN(S(=O)(=O)Cc3cccc(N)c3)CC2)cnn(-c2cc(F)cc(F)c2)c1=O)C(C)(C)C (centres unmarked) [971Zbb] | 6.23 | 2850 |
| CCOCCOc1c(N2CCN(c3ncc([N+](=O)[O-])s3)CC2)cnn(-c2cccc(C)c2)c1=O [240Z] | 3.70 | 201000 |
| CC1(COc2c(N3CCN(S(=O)(=O)NCc4ccc(N)cc4)CC3)cnn(-c3cc(F)cc(F)c3)c2=O)CC1 [1634Z] | 6.52 | 196 |
| Nc1ccccc1CS(=O)(=O)N1CCN(c2cnn(-c3cc(F)cc(F)c3)c(=O)c2OC2CCCC2)CC1 [738Z] | 7.13 | 128 |
| COc1cccc(CS(=O)(=O)N2CCN(c3cnn(-c4cccc(Cl)c4)c(=O)c3OCC3(C)CC3)CC2)c1N [Compound 1574ZI] | 7.06 | 87.1 |
| Nc1ccc(CS(=O)(=O)N2CCN(c3cnn(-c4cccc(Cl)c4)c(=O)c3OCc3ccccc3)CC2)cc1 [1529Z-19] | 7.15 | 230 |
| CC(C)(C)COc1c(N2CCN(S(=O)(=O)Cc3cccc(N)c3)CC2)cnn(-c2cccc(Cl)c2)c1=O [1529Z-151] | 6.89 | 165 |
| CC1(COc2c(N3CCN(S(=O)(=O)Cc4ccccc4)CC3)cnn(-c3cccc(Cl)c3)c2=O)CC1 [1035Z] | 7.12 | 56.7 |
| CC1CCC(Oc2c(N3CCN(S(=O)(=O)Cc4cccc(N)c4)CC3)cnn(-c3ccccc3)c2=O)C1 (centres unmarked) [1529Z-70] | 6.87 | 153 |
| CC(C)NC(=O)N1CCN(c2cnn(-c3cccc(F)c3)c(=O)c2OC2Cc3ccccc3C2)CC1 [197Z] | 6.80 | 3870 |
| O=c1c(OCc2cccc(F)c2)c(N2CCN(S(=O)(=O)Cc3ccccc3)CC2)cnn1-c1cc(F)cc(F)c1 [1529Z-150] | 7.15 | 175 |
| Nc1ccc(CS(=O)(=O)N2CCN(c3cnn(-c4cc(F)cc(F)c4)c(=O)c3OCC3(CF)CC3)CC2)cc1 [932Z] | 7.15 | 231 |
